Measured values as given in patent US7531530B2, “Therapeutic compounds” (Cancer Research Technology Limited, priority 2003, dated 2009).

What was measured:
[1] = Plasma and tumour pharmacokinetics in mice bearing SW620 xenografts; format: in vivo
[2] = molecular target: T1, PARP (pbl parp) (Mus musculus, UniProt P11103); test: PARP activity in peripheral blood lymphocytes of formula I-phosphate treated mice (10H antibody); format: in vivo
T1 construct: from tissue; host or cells: peripheral blood lymphocytes of treated mice

[3] = Solubility; format: physicochemical; conditions: phosphate salt versus parent compound
[4] = molecular target: PARP (tumour PARP) (Homo sapiens, UniProt P09874); test: PARP activity in SW620 tumour homogenates of formula I-phosphate treated mice (10H antibody); format: in vivo
[5] = system: SW620 xenografts; test: Tumour growth in mice bearing SW620 xenografts; format: in vivo; conditions: formula III 15 mg/kg daily×5 in conjunction with temozolomide
Description: FIG. 8 is a graph showing the tumour growth (median relative tumour volume) in mice bearing SW620 xenografts following treatment with formula III in combination with temozolomide (TMZ) and with TMZ alone;
FIG. 9 is a graph showing the tumour growth (median relative tumour volume) of mice bearing SW620 xenografts following treatment with formula I-phosphate in combination with temozolomide (TMZ) and with formula I-phosphate and TMZ alone;
However, shortly after this time the tumour size begins to increase.

[6] = molecular target: T2, PARP (tumour PARP act) (Homo sapiens, UniProt P09874); test: PARP activity in SW620 tumour homogenates of formula III-treated mice ([32P] NAD+ incorporation); format: in vivo; conditions: formula III 10 mg/kg intraperitoneal; SW620 xenografts
T2 construct: from tissue; host or cells: SW620 xenograft tumour homogenates from treated mice
Method: (§1) Exponentially growing cells were exposed to 1% DMSO in culture medium (control) or a compound of formula I or III in 1% DMSO at the concentrations indicated in FIG. 4 to cells permeabilised with digitonin, or intact cells for 20 minutes prior to washing and digitonin-permeabilization. PARP activity was measured by incorporation of a [32P] labelled NAD+ substrate into TCA precipitateble polymers after stimulation by the addition of a blunt-ended oligonucleotide and compared with non-oligonucleotide-stimulated cells. PARP activity in tumour homogenates (1 in 40 in isotonic buffer) from formula III-treated mice was measured in the same way. PARP activity in pbls and tumour homogenates from formula I-phosphate treated mice was measured by immunological detection of polymer using the 10H antibody. Briefly, tumour homogenates diluted to up to 1:1000 in isotonic buffer were incubated with 350 μM NAD for 6 min and blotted onto nitrocellulose membrane. The poly(ADP-ribose) (PAR) polymer formation was quantified by chemiluminescence detection using a Fuji LAS3000 UV Illuminator by reference to serial dilutions of a PAR standard, following incubation with 10H antibody to PAR and a secondary anti-mouse antibody.

[7] = molecular target: T3, PARP (Mus musculus, UniProt P11103); test: Cellular PARP activity assay, permeabilised L1210 cells; format: cell-based; conditions: L1210 cells permeabilised with digitonin prior to adding the inhibitor
T3 construct: endogenous in cells; host or cells: L1210 cells
Method: as §1

[8] = molecular target: T3, PARP; test: Cellular PARP activity assay, intact L1210 cells; format: cell-based; conditions: intact L1210 cells exposed for 20 minutes prior to permeabilisation
Method: as §1

[9] = formula I-phosphate 1 mg/kg, compared with 10 mg/kg
[10] = formula I-phosphate 10 mg/kg intraperitoneal, 24 hr after administration
[11] = formula I-phosphate 10 mg/kg intraperitoneal, thirty minutes after administration
[12] = formula III 10 mg/kg intraperitoneal

T3 sequence (P11103 whole entry): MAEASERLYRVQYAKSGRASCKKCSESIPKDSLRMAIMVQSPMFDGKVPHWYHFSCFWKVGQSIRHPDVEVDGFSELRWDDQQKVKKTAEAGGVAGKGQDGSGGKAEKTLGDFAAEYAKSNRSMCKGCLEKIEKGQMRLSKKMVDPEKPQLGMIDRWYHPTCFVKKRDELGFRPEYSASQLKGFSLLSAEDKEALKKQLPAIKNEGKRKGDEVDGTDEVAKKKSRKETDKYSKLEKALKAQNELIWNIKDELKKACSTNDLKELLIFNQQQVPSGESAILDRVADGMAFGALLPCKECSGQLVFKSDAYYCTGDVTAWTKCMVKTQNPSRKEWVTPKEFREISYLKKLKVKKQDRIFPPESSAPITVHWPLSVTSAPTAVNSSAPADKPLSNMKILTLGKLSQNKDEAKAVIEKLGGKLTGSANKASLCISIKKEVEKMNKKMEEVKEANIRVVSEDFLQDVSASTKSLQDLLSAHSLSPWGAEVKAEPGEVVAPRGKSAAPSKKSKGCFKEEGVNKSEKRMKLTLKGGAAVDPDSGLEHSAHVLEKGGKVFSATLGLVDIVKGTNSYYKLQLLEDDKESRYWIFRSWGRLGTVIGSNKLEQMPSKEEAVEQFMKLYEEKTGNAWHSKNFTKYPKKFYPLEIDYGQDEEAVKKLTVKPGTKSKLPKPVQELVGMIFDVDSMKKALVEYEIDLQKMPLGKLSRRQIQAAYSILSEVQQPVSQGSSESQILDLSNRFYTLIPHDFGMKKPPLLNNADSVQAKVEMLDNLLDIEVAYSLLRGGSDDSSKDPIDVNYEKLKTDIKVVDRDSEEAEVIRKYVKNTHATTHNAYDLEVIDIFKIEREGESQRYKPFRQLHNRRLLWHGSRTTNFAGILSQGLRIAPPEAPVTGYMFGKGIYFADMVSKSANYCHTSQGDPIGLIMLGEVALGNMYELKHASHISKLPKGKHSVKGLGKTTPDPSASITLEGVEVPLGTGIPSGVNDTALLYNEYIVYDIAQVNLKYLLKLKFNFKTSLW
Chain of PARP (tumour PARP) (P09874 whole entry): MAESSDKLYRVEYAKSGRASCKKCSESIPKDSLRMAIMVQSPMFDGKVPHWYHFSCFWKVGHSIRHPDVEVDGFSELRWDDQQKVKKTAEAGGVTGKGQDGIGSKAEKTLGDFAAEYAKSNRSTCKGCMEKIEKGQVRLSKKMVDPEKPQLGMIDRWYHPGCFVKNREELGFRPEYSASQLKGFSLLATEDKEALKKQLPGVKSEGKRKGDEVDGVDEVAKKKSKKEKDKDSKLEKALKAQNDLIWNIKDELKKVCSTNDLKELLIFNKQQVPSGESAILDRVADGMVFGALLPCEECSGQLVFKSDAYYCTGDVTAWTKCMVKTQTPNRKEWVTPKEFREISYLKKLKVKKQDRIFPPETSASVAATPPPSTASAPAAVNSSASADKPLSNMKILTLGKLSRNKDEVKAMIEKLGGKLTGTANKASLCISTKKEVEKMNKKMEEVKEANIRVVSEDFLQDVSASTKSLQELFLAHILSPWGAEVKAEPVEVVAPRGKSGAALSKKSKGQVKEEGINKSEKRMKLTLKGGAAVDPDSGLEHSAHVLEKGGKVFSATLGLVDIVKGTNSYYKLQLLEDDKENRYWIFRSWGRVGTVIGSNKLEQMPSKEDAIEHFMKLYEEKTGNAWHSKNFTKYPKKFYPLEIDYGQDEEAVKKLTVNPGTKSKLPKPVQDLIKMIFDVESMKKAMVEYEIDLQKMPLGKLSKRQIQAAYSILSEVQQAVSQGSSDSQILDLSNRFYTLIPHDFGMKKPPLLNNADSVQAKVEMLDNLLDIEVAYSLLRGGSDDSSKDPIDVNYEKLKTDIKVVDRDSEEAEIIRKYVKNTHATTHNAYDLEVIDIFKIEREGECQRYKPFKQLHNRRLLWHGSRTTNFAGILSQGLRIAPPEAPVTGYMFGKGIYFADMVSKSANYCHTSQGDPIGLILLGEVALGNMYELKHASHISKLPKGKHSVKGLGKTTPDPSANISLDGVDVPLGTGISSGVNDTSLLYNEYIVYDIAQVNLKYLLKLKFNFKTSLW
T1 sequence (P11103 whole entry): as the sequence (P11103 whole entry) above
T2 sequence (P09874 whole entry): as the sequence (P09874 whole entry) above

Row | SMILES | plasma concentration of formula I [1, 9] | tumour concentration of formula I [1, 9] | decrease of concentration with time, plasma versus tumour ([1]; formula I-phosphate 10 mg/kg intraperitoneal) | plasma concentration of parent compound (formula I) [1, 10] | tumour concentration of parent compound (formula I) [1, 10] | plasma concentration of parent compound (formula I) [1, 11] | tumour concentration of parent compound (formula I) [1, 11] | effect on PARP activity in pbls [2, 9] | PARP activity in pbls ([2]; formula I-phosphate 10 mg/kg intraperitoneal, up to 24 hr) | solubility relative to formula I [3] | effect on PARP activity in tumour [4, 9] | PARP activity in tumour ([4]; formula I-phosphate 10 mg/kg intraperitoneal, up to 24 hr, SW620 xenografts) | tumour outcome at autopsy at the end of the experiment [5] | distribution to the tumour [1, 12] | retention in tumour versus plasma with time [1, 12] | PARP activity in the tumour [6] | PARP inhibitory activity, formula I compared with formula III [7] | PARP inhibitory activity, formula I compared with formula III [8]
1 | CNCc1ccc(-c2[nH]c3cc(F)cc4c3c2CCNC4=O)cc1.O=P(O)(O)O [formula I-phosphate] | lower levels | lower levels | more rapidly in the plasma than in the tumour | none could be detected | significant levels were detectable | high levels | high levels | less pronounced effect | < 50 % control | increases the solubility | less pronounced effect | < 50 % control | – | – | – | – | – | –
2 | CN(C)Cc1ccc(-c2nc3cccc4c3n2CCNC4=O)cc1 [formula III] | – | – | – | – | – | – | – | – | – | – | – | – | complete tumour regression | distributes well to the tumour | preferentially retained with time | inhibits PARP activity | no difference | –
3 | CNCc1ccc(-c2[nH]c3cc(F)cc4c3c2CCNC4=O)cc1 [formula I] | – | – | – | – | – | – | – | – | – | – | – | – | – | – | – | – | no difference | more potent
